Test results: patent US20130303532A1, “IMIDAZOPYRAZINES FOR USE AS MPS-1 AND TKK INHIBITORS IN THE TREATMENT HYPERPROLIFERATIVE DISORDERS” (BAYER INTELLECTUAL PROPERTY GmbH, priority 2010, published 2013)
Read-outs that look alike come from different tables or passages of the source.

Target: T1, human kinase Mps-1 (Homo sapiens, UniProt P33981)
T1 construct: N-terminally GST-tagged human full length recombinant Mps-1 kinase; GST (N); purchased Invitrogen, Karslruhe, Germany PV4071
T1 sequence (P33981 1-857): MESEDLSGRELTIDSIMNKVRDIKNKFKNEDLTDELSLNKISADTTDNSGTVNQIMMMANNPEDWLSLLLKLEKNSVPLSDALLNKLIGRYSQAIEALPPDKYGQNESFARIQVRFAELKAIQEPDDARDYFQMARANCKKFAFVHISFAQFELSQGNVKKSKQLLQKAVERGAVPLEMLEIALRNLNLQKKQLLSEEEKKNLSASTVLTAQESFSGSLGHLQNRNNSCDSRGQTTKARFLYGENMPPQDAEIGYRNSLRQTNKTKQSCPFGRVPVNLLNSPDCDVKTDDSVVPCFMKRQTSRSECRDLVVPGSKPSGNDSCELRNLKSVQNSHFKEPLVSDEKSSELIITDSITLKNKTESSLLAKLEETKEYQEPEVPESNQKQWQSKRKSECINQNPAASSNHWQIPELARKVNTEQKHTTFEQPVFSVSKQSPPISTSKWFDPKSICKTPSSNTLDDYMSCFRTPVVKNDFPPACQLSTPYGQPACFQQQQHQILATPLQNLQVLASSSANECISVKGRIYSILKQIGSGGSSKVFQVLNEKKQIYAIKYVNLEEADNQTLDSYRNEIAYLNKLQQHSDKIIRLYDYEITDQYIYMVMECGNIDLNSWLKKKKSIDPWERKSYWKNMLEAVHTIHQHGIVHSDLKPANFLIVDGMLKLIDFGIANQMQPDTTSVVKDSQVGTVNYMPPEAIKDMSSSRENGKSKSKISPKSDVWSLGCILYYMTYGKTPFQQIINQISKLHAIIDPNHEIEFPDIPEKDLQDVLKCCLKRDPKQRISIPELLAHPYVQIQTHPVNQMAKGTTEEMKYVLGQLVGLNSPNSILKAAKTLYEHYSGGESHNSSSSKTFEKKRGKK
Experiment: Mps-1 kinase assay (TR-FRET)
Type: biochemical
Details: N-terminally GST-tagged human full length recombinant Mps-1, 10 μM ATP, 1 μM biotinylated peptide substrate, 60 min at 22° C.

COc1ccccc1CNc1nccn2c(-c3ccc(C(=O)NC4CC4)cc3)cnc12 [Example 4-8, N-cyclopropyl-4-{8-[(2-methoxybenzyl)amino]imi-dazo[1,2-a]pyrazin-3-yl}benzamide]
IC50 (Mps1 IC50 [nM]): 85.5 nM

Cc1cc(-c2cnc3c(NCCCS(C)(=O)=O)nccn23)ccc1C(=O)NC1CC1 [Example 5-1, N-cyclopropyl-2-methyl-4-(8-{[3-(methylsulfonyl)propyl]amino}imidazo[1,2-a]pyrazin-3-yl)benzamide]
IC50 (read-out: Mps1 IC50): 278 nM

Cc1cc(-c2cnc3c(NCc4ccccc4O)nccn23)ccc1C(=O)NC1CC1 [Example 5-2, N-cyclopropyl-4-{8-[(2-hydroxybenzyl)amino]imi-dazo[1,2-a]pyrazin-3-yl}-2-methylbenzamide]
IC50 (Mps1 IC50 [nM]): 24.4 nM

Cc1cc(-c2cnc3c(NCc4ccn[nH]4)nccn23)ccc1C(=O)NC1CC1 [Example 5-3, N-cyclopropyl-2-methyl-4-{8-[(1H-pyrazol-5-ylmethyl)amino]imi-dazo[1,2-a]pyrazin-3-yl}benzamide]
IC50 (Mps1 IC50 [nM]): 86.7 nM

Cc1cc(-c2cnc3c(NCc4ccccc4Cl)nccn23)ccc1C(=O)NC1CC1 [Example 5-4, 4-{8-[(2-chlorobenzyl)amino]imi-dazo[1,2-a]pyrazin-3-yl}-N-cyclopropyl-2-methylbenzamide]
IC50 (Mps1 IC50 [nM]): 18.8 nM

Cc1cc(-c2cnc3c(NCc4ccnn4C)nccn23)ccc1C(=O)NC1CC1 [Example 5-5, N-cyclopropyl-2-methyl-4-(8-{[(1-methyl-1H-pyrazol-5-yl)methyl]amino}imi-dazo[1,2-a]pyrazin-3-yl)benzamide]
IC50 (Mps1 IC50 [nM]): 67 nM

CC(C)CNc1nccn2c(-c3ccc(C(=O)NC4CC4)c(Cl)c3)cnc12 [Example 6-1, 2-chloro-N-cyclopropyl-4-{8-[(2-methylpropyl)amino]imidazo[1,2-a]pyrazin-3-yl}benzamide]
IC50 (read-out: Mps1 IC50): 28 nM

CCCCCNc1nccn2c(-c3ccc(C(=O)NC4CC4)cc3)cnc12 [Example 7-1, N-cyclopropyl-4-[8-(pentylamino)imidazo[1,2-a]pyrazin-3-yl]benzamide]
IC50 (read-out: Mps1 IC50): 22.5 nM

COCCNc1nccn2c(-c3ccc(C(=O)NC4CC4)cc3)cnc12 [Example 7-2, N-cyclopropyl-4-{8-[(2-methoxyethyl)amino]imi-dazo[1,2-a]pyrazin-3-yl}benzamide]
IC50 (Mps1 IC50 [nM]): 272 nM

COCCCNc1nccn2c(-c3ccc(C(=O)NC4CC4)cc3)cnc12 [Example 7-3, N-cyclopropyl-4-{8-[(3-methoxypropyl)amino]imi-dazo[1,2-a]pyrazin-3-yl}benzamide]
IC50 (Mps1 IC50 [nM]): 95.8 nM

O=C(NC1CC1)c1ccc(-c2cnc3c(NCCN4CCOCC4)nccn23)cc1 [Example 7-4, N-cyclopropyl-4-(8-{[2-(morpholin-4-yl)ethyl]amino}imidazo[1,2-a]pyrazin-3-yl)benzamide]
IC50 (read-out: Mps1 IC50): 341 nM

O=C(NC1CC1)c1ccc(-c2cnc3c(NCCCN4CCOCC4)nccn23)cc1 [Example 7-5, N-cyclopropyl-4-(8-{[3-(morpholin-4-yl)propyl]amino}imi-dazo[1,2-a]pyrazin-3-yl)benzamide]
IC50 (Mps1 IC50 [nM]): 328 nM

CN(C)CCCNc1nccn2c(-c3ccc(C(=O)NC4CC4)cc3)cnc12 [Example 7-6, N-cyclopropyl-4-(8-{[3-(dimethylamino)propyl]ami-nono}imidazo[1,2-a]pyrazin-3-yl)benzamide]
IC50 (read-out: Mps1 IC50): 1260 nM

CN(C)CCNc1nccn2c(-c3ccc(C(=O)NC4CC4)cc3)cnc12 [Example 7-7, N-cyclopropyl-4-(8-{[2-(dimethylamino)ethyl]ami-no}imidazo[1,2-a]pyrazin-3-yl)benzamide]
IC50 (read-out: Mps1 IC50): 4050 nM

O=C(NC1CC1)c1ccc(-c2cnc3c(NCCN4CCCCC4)nccn23)cc1 [Example 7-8, N-cyclopropyl-4-(8-{[2-(piperidin-1-yl)ethyl]amino}imidazo[1,2-a]pyrazin-3-yl)benzamide]
IC50 (read-out: Mps1 IC50): 1950 nM

O=C(NC1CC1)c1ccc(-c2cnc3c(NCCc4ccccc4)nccn23)cc1 [Example 7-9, N-cyclopropyl-4-{8-[(2-phenylethyl)amino]imi-dazo[1,2-a]pyrazin-3-yl}benzamide]
IC50 (Mps1 IC50 [nM]): 47.7 nM
